In patent US20260035387A1 (BIOGEN MA INC., priority 2022, published 2026) one finds IC50 data, which are given here for 22 molecules.

This experiment relates to mutant Huntington (HTT) protein. In words: HTT Mutant HTRF iPSC assay (mHTT protein lowering). Type of experiment: cell-based. To be noted: human iPSC derived from a HTT patient with a poly-Q49 mutation.

One may read the IC50 as the concentration needed to halve the response being measured. Read a high IC50 as weaker potency in that assay.

On to `Cc1cn2cc(NC(=O)c3cc4ccc(N5CCC6CNCC65)nc4s3)cc(F)c2n1` (stereo not shown) [Compound 201, N-(8-fluoro-2-methylimidazo[1,2-a]pyridin-6-yl)-6-(hexahydropyrrolo[3,4-b]pyrrol-1(2H)-yl)thieno[2,3-b]pyridine-2-carboxamide], for which the IC50 was < 100 nM.
As for `Cc1cn2cc(NC(=O)c3cc4ccc(N5C[C@H]6CN[C@H]6C5)nc4s3)cc(F)c2n1` [Compound 202, 6-((1R,5R)-3,6-diazabicyclo[3.2.0]heptan-3-yl)-N-(8-fluoro-2-methylimidazo[1,2-a]pyridin-6-yl)thieno[2,3-b]pyridine-2-carboxamide], the figure is < 100 nM.
As for `Cc1cn2cc(NC(=O)c3cc4ccc(N5CC(N(C)C)C(C)(C)C5)nc4s3)cc(F)c2n1` (stereo not shown) [Compound 203, 6-(4-(dimethylamino)-3,3-dimethylpyrrolidin-1-yl)-N-(8-fluoro-2-methylimidazo[1,2-a]pyridin-6-yl)thieno[2,3-b]pyridine-2-carboxamide], the figure is < 100 nM; as for `Cc1cn2cc(NC(=O)c3cc4ccc(N5CC(N(C)C)C5)nc4s3)cc(F)c2n1` [Compound 204, 6-(3-(dimethylamino)azetidin-1-yl)-N-(8-fluoro-2-methylimidazo[1,2-a]pyridin-6-yl)thieno[2,3-b]pyridine-2-carboxamide], < 100 nM.
Consider `Cc1cn2cc(NC(=O)c3cc4ccc(N5CCC(N6CC7(CC7)C6)C5)nc4s3)cc(F)c2n1` (stereo not shown) [Compound 207, 6-(3-(5-azaspiro[2.3]hexan-5-yl)pyrrolidin-1-yl)-N-(8-fluoro-2-methylimidazo[1,2-a]pyridin-6-yl)thieno[2,3-b]pyridine-2-carboxamide], for which the IC50 is < 100 nM.
As for `Cc1cn2cc(NC(=O)c3cc4ccc(N5CCC6(CCCN6C)C5)nc4s3)nc(C)c2n1` (stereo not shown) [Compound 208, N-(2,8-dimethylimidazo[1,2-a]pyrazin-6-yl)-6-(1-methyl-1,7-diazaspiro[4.4]nonan-7-yl)thieno[2,3-b]pyridine-2-carboxamide], the figure is < 100 nM; as for `Cc1cn2cc(NC(=O)c3cc4ccc(N5CCC56CCNC6)nc4s3)cc(F)c2n1` (stereo not shown) [Compound 209, N-(8-fluoro-2-methylimidazo[1,2-a]pyridin-6-yl)-6-(1,6-diazaspiro[3.4]octan-1-yl)thieno[2,3-b]pyridine-2-carboxamide], < 100 nM; as for `Cc1cn2cc(NC(=O)c3cc4ccc(N5CC(N(C)C)C6(CC6)C5)nc4s3)nc(C)c2n1` (stereo not shown) [Compound 211, 6-(7-(dimethylamino)-5-azaspiro[2.4]heptan-5-yl)-N-(2,8-dimethylimidazo[1,2-a]pyrazin-6-yl)thieno[2,3-b]pyridine-2-carboxamide], < 100 nM.
The result for `Cc1cn2cc(NC(=O)c3cc4ccc(NC5CN(C)CC5F)nc4s3)nc(C)c2n1` (stereo not shown) [Compound 214, N-(2,8-dimethylimidazo[1,2-a]pyrazin-6-yl)-6-((4-fluoro-1-methylpyrrolidin-3-yl)amino)thieno[2,3-b]pyridine-2-carboxamide] reads < 100 nM; that for `COc1cc2nn(C)cc2cc1NC(=O)c1cc2ccc(N3C[C@@H]4CN(C)C[C@@H]43)nc2s1` [Compound 216, N-(6-methoxy-2-methyl-2H-indazol-5-yl)-6-((1S,5R)-3-methyl-3,6-diazabicyclo[3.2.0]heptan-6-yl)thieno[2,3-b]pyridine-2-carboxamide], < 100 nM; that for `Cc1cn2cc(NC(=O)c3cc4ccc(N5C[C@H]6CN(C)C[C@H]65)nc4s3)cc(F)c2n1` [Compound 217, N-(8-fluoro-2-methylimidazo[1,2-a]pyridin-6-yl)-6-((1R,5S)-3-methyl-3,6-diazabicyclo[3.2.0]heptan-6-yl)thieno[2,3-b]pyridine-2-carboxamide], < 100 nM.
The result for `Cc1cn2cc(NC(=O)c3cc4ccc(N5C[C@H]6CN(C)C[C@H]65)nc4s3)nc(C)c2n1` [Compound 218, N-(2,8-dimethylimidazo[1,2-a]pyrazin-6-yl)-6-((1R,5S)-3-methyl-3,6-diazabicyclo[3.2.0]heptan-6-yl)thieno[2,3-b]pyridine-2-carboxamide] reads < 100 nM.
In the case of `CNC1CCN(c2ccc3cc(C(=O)Nc4cn5cc(C)nc5c(C)n4)sc3n2)C1` (stereo not shown) [Compound 219, N-(2,8-dimethylimidazo[1,2-a]pyrazin-6-yl)-6-(3-(methylamino)pyrrolidin-1-yl)thieno[2,3-b]pyridine-2-carboxamide], the IC50 was < 100 nM.
The result for `CN[C@@H]1CCN(c2ccc3cc(C(=O)Nc4cc(OC)c5nc(C)cn5c4)sc3n2)C1` [Compound 220, (R)-N-(8-methoxy-2-methylimidazo[1,2-a]pyridin-6-yl)-6-(3-(methylamino)pyrrolidin-1-yl)thieno[2,3-b]pyridine-2-carboxamide] reads < 100 nM; that for `COc1cc2nn(C)cc2cc1NC(=O)c1cc2ccc(N3CCC4(CN(C)C4)C3)nc2s1` [Compound 221, N-(6-methoxy-2-methyl-2H-indazol-5-yl)-6-(2-methyl-2,6-diazaspiro[3.4]octan-6-yl)thieno[2,3-b]pyridine-2-carboxamide], < 100 nM; that for `Cc1cn2cc(NC(=O)c3cc4ccc(N5CCC6(CN(C)C6)C5)nc4s3)nc(C)c2n1` [Compound 226, N-(2,8-dimethylimidazo[1,2-a]pyrazin-6-yl)-6-(2-methyl-2,6-diazaspiro[3.4]octan-6-yl)thieno[2,3-b]pyridine-2-carboxamide], < 100 nM.
The result for `Cc1cn2cc(NC(=O)c3cc4ccc(N5CCC(C)(N(C)C)C5)nc4s3)nc(C)c2n1` (stereo not shown) [Compound 227, 6-(3-(dimethylamino)-3-methylpyrrolidin-1-yl)-N-(2,8-dimethylimidazo[1,2-a]pyrazin-6-yl)thieno[2,3-b]pyridine-2-carboxamide] reads < 100 nM; that for `Cc1cn2cc(NC(=O)c3cc4ccc(N5CCC(N6CCC6)C5)nc4s3)nc(C)c2n1` (stereo not shown) [Compound 228, 6-(3-(azetidin-1-yl)pyrrolidin-1-yl)-N-(2,8-dimethylimidazo[1,2-a]pyrazin-6-yl)thieno[2,3-b]pyridine-2-carboxamide], < 100 nM.
`Cc1nc(NC(=O)c2cc3ccc(N4C[C@@H]5CN(C)C[C@@H]54)nc3s2)cc2cn(C)nc12` [Compound 229, N-(2,7-dimethyl-2H-pyrazolo[3,4-c]pyridin-5-yl)-6-((1S,5R)-3-methyl-3,6-diazabicyclo[3.2.0]heptan-6-yl)thieno[2,3-b]pyridine-2-carboxamide]: the IC50 is < 100 nM.
The result for `Cc1nc(NC(=O)c2cc3ccc(N4CCC5(CCCN5C)C4)nc3s2)cc2cn(C)nc12` (stereo not shown) [Compound 230, N-(2,7-dimethyl-2H-pyrazolo[3,4-c]pyridin-5-yl)-6-(1-methyl-1,7-diazaspiro[4.4]nonan-7-yl)thieno[2,3-b]pyridine-2-carboxamide] reads < 100 nM.
The result for `COc1cc2nn(C)cc2cc1NC(=O)c1cc2ccc(N3CC(N4CCC4)C3)nc2s1` [Compound 232, 6-([1,3′-biazetidin]-1′-yl)-N-(6-methoxy-2-methyl-2H-indazol-5-yl)thieno[2,3-b]pyridine-2-carboxamide] reads < 100 nM.
As for `Cc1cn2cc(NC(=O)c3cc4ccc(N5CCN(C(C)C)CC5)nc4s3)nc(C)c2n1` [Compound 233, N-(2,8-dimethylimidazo[1,2-a]pyrazin-6-yl)-6-(4-isopropylpiperazin-1-yl)thieno[2,3-b]pyridine-2-carboxamide], the figure is < 100 nM.
